Source: US20240360122A1, “POLYMORPHIC FORMS AND SALTS OF A GLP-1R AGONIST” (Terns (Suzhou) Biotechnology Co., Ltd., priority 2023, published 2024)
Counter-ions that a name gives are not always drawn.

What was measured:
Type in all cases: physicochemical
[1] = Solid state stability at 25° C./60% RH and 40° C./75% RH for 1 week; conditions: for HPLC peak Area, RRT 1.00: main peak
Method: Each sample was added into a glass vial, sealed by parafilm with several holes, and kept under tested conditions. After one week, samples were taken for XRPD and HPLC purity test.

[2] = Competitive experiments of Type A and Type B in different solvent system at different temperature; conditions: different ratio of DMSO/EA system at different temperature
[3] = Hygroscopicity by DVS at 25° C.
Method: DVS was measured via a SMS (Surface Measurement Systems) DVS Intrinsic. The relative humidity at 25° C. were calibrated against deliquescence point of LiCl, Mg(NO3)2 and KCl.

## N#Cc1ccc(COc2cccc(C3CCN(Cc4nc5ccc(C(=O)O)cc5n4Cc4cncs4)CC3)n2)c(F)c1 [Meglumine salt Type A]
[1]; 25° C./60% RH, 1 week
  HPLC peak Area, RRT 0.70: 0.07%
  HPLC peak Area, RRT 0.73: 0.14%
  HPLC peak Area, RRT 0.80: 0.05%
  HPLC peak Area, RRT 0.83: 1.93%
  HPLC peak Area, RRT 0.90: 0.12%
  HPLC peak Area, RRT 0.99: <0.05%
  HPLC peak Area, RRT 1.05: 0.28%
  HPLC peak Area, RRT 1.10: 0.23%
  HPLC peak Area, RRT 1.12: <0.05%
  HPLC peak Area, RRT 1.15: 0.11%
  HPLC peak Area, RRT 1.34: 0.08%
  HPLC peak Area, RRT 1.00: 96.98%
[1]; 25° C./60% RH/Open/1 week
  Form change: No
  Purity: 96.98 Area %
[1]; 25° C./60% RH/open and 40° C./75% RH/open, 1 week
  solid-state stability: form change and purity decrease: no form change or significant purity decrease
[1]; 40° C./75% RH, 1 week
  HPLC peak Area, RRT 0.70: 0.06%
  HPLC peak Area, RRT 0.73: 0.15%
  HPLC peak Area, RRT 0.80: 0.05%
  HPLC peak Area, RRT 0.83: 1.96%
  HPLC peak Area, RRT 0.90: 0.11%
  HPLC peak Area, RRT 0.99: <0.05%
  HPLC peak Area, RRT 1.05: 0.28%
  HPLC peak Area, RRT 1.10: 0.34%
  HPLC peak Area, RRT 1.12: <0.05%
  HPLC peak Area, RRT 1.15: 0.13%
  HPLC peak Area, RRT 1.34: 0.05%
  HPLC peak Area, RRT 1.00: 96.88%
[1]; 40° C./75% RH/Open/1 week
  Form change: No
  Purity: 96.88 Area %
[1]; Initial
  HPLC peak Area, RRT 0.70: 0.07%
  HPLC peak Area, RRT 0.73: 0.13%
  HPLC peak Area, RRT 0.80: 0.05%
  HPLC peak Area, RRT 0.83: 1.95%
  HPLC peak Area, RRT 0.90: 0.12%
  HPLC peak Area, RRT 0.99: 0.11%
  HPLC peak Area, RRT 1.05: 0.28%
  HPLC peak Area, RRT 1.10: 0.24%
  HPLC peak Area, RRT 1.12: 0.05%
  HPLC peak Area, RRT 1.15: 0.11%
  HPLC peak Area, RRT 1.34: 0.16%
  Purity: 96.73 Area %
  HPLC peak Area, RRT 1.00: 96.73%
[2]
  thermodynamic stability, Type A versus Type B: thermodynamically more stable
[3]; 25° C./80% RH
  water uptake (DVS): 1.43%
[3]; DVS, 25° C.
  hygroscopicity: slightly hygroscopic
[3]; DVS, 25° C./80% RH
  Water uptake at 25° C./80% RH: 1.43 wt %
[3]; XRPD after DVS test
  For change after DVS: No
[3]; after DVS test
  form change after DVS test (XRPD): no form change
